Test systems include MALME-3M melanoma; SF-268 CNS; OVCAR-3 ovarian; UACC-62 melanoma; NCI-H522 lung; OVCAR-8 ovarian; TK-10 renal; KM12 colon; SW-620 colon; HL-60(TB) leukemia.
Holding throughout (assay): NCI tumour cell line growth inhibition, 48 h

Structures are written as SMILES.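 1) Cells in 96-well plates. 2) Compound, 48 h, 5 concentrations. 3) Linear interpolation between surrounding doses. 4) Unreached endpoint = highest concentration. Abbreviation: GI50, concentration required for 50% inhibition of growth. Definition used: TGI = concentration required for complete inhibition of growth.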 Where a SMILES comes first, the peptide text is derived from it. [ ]: non-standard residue; d: D form. The star is where a group is joined. ξ: configuration not given here. ξF = NC(Cc1ccccc1)C(=O)O; Cbz = O=C(OCc1ccccc1)*; Aib = CC(C)(N)C(=O)O

With `OC(C1CCC=NN1C(O)(C(F)(F)F)C(F)(F)F)(C(F)(F)F)C(F)(F)F` (stereo unspecified), the TGI in the experiment on MALME-3M melanoma, in the experiment on SF-268 CNS, in the experiment on OVCAR-3 ovarian, in the experiment with UACC-62 melanoma, in the experiment with NCI-H522 lung and in the experiment with OVCAR-8 ovarian was > 10 µM throughout. The TGI with TK-10 renal and in the experiment with KM12 colon was > 10 µM throughout.

As to `CCN1CC(C)Cn2c(=O)[nH]c3cc(Br)cc1c32` (stereo unspecified), the TGI in the experiment with MALME-3M melanoma is > 100 µM; in the experiment on SF-268 CNS, > 100 µM; in the experiment with SW-620 colon, > 100 µM; in the experiment with OVCAR-3 ovarian, 77.5 µM; with UACC-62 melanoma it was > 100 µM; in the experiment with OVCAR-8 ovarian it was > 100 µM. The figures for the TGI in the experiment on HL-60(TB) leukemia, with TK-10 renal and in the experiment with KM12 colon were 37.5 µM, > 100 µM and > 100 µM, respectively.

Turning to `S=C1c2ccccc2NC(=NC2CCCC2)C2CSCN12` (stereo unspecified), the TGI in the experiment on MALME-3M melanoma, with SF-268 CNS, in the experiment on SW-620 colon, with OVCAR-3 ovarian, in the experiment on UACC-62 melanoma and with NCI-H522 lung was > 100 µM each time. Besides, the TGI with OVCAR-8 ovarian, in the experiment on TK-10 renal and in the experiment on KM12 colon was > 100 µM throughout.

Turning to `CC(C)(NC(=O)OCc1ccccc1)C(=O)NC(Cc1ccccc1)C(=O)O` (stereo unspecified) (Cbz-[Aib]-[ξF]-OH), the TGI in the experiment on MALME-3M melanoma, with SW-620 colon, in the experiment with OVCAR-3 ovarian, in the experiment with UACC-62 melanoma, in the experiment with NCI-H522 lung and with OVCAR-8 ovarian was > 100 µM in each case. The TGI in the experiment with KM12 colon was > 100 µM.

With `O=C(CSc1nc2ccccc2[nH]1)Nc1ccc(-c2nc3ccccc3s2)c(Cl)c1`, the GI50 in the experiment with MALME-3M melanoma was 2.59 µM; in the experiment with SF-268 CNS it was 1.88 µM; in the experiment with SW-620 colon, 4.78 µM; in the experiment with OVCAR-3 ovarian it was 2.17 µM; with OVCAR-8 ovarian, 3.35 µM; with HL-60(TB) leukemia it was > 100 µM. Further, the GI50 in the experiment on TK-10 renal was 4.67 µM; in the experiment on KM12 colon, 2.67 µM. Also, the TGI is 8.92 µM with MALME-3M melanoma; 4.37 µM with SF-268 CNS; > 100 µM in the experiment on SW-620 colon; 4.55 µM in the experiment on OVCAR-3 ovarian; > 100 µM with OVCAR-8 ovarian; > 100 µM with HL-60(TB) leukemia. The TGI in the experiment with TK-10 renal was found to be 76.6 µM; in the experiment on KM12 colon, 8.1 µM.

Consider `Cc1cc2c(cc1Cl)Sc1nnc(Nc3ccccc3)n1S2(=O)=O`, for which the TGI with SF-268 CNS was 11 µM; in the experiment with SW-620 colon, > 100 µM; with OVCAR-3 ovarian, 7.1 µM; with NCI-H522 lung it was 14.2 µM; with OVCAR-8 ovarian, 20.8 µM; in the experiment on HL-60(TB) leukemia it was 16.4 µM. The TGI with TK-10 renal came to 43.6 µM; in the experiment on KM12 colon it was 57.5 µM.

With `O=C(c1ccc(Cl)cc1)c1ccc(OCC(=O)N2CCN(c3ccccc3)CC2)cc1`, the TGI in the experiment on MALME-3M melanoma, in the experiment on SF-268 CNS, in the experiment with SW-620 colon, in the experiment with OVCAR-3 ovarian, with UACC-62 melanoma and in the experiment on OVCAR-8 ovarian was > 100 µM throughout. Moreover, the TGI in the experiment with HL-60(TB) leukemia, in the experiment on TK-10 renal and in the experiment with KM12 colon was > 100 µM throughout.

Turning to `c1ccc2c(-c3cnc(-c4c[nH]c5ccccc45)cn3)c[nH]c2c1`, the TGI with MALME-3M melanoma is > 100 µM; in the experiment on SF-268 CNS it was > 100 µM; with SW-620 colon it was 47.9 µM; with OVCAR-3 ovarian, > 100 µM; with UACC-62 melanoma it was > 100 µM; with NCI-H522 lung it was 64.2 µM. Moreover, the TGI in the experiment on OVCAR-8 ovarian, in the experiment on TK-10 renal and in the experiment with KM12 colon was > 100 µM in each case.

`Cc1ccc(C)n2c1nc1ccc3ccccc3c12`: the TGI in the experiment on MALME-3M melanoma, in the experiment on SF-268 CNS, in the experiment with SW-620 colon, with OVCAR-3 ovarian, with UACC-62 melanoma and with OVCAR-8 ovarian was > 100 µM throughout. The TGI in the experiment with HL-60(TB) leukemia, in the experiment on TK-10 renal and with KM12 colon was > 100 µM throughout.

On to `C=CCC(C)C12CCNC(Cc3ccc(O)cc31)C2C` (stereo unspecified), for which the TGI with MALME-3M melanoma, with SF-268 CNS, in the experiment on SW-620 colon, in the experiment with UACC-62 melanoma, in the experiment with OVCAR-8 ovarian and in the experiment on TK-10 renal was > 100 µM each time. Moreover, the TGI in the experiment on KM12 colon was > 100 µM.

`CC(=O)Oc1ccc(/C=C/C(=O)O[C@@H](C)[C@H](C)OC(=O)/C=C/c2ccc(OC(C)=O)c(OC(C)=O)c2)cc1OC(C)=O`: the TGI is 63.5 µM in the experiment on MALME-3M melanoma; > 100 µM in the experiment with SF-268 CNS; 35.3 µM in the experiment with SW-620 colon; 51.6 µM in the experiment on OVCAR-3 ovarian; 33.8 µM in the experiment on UACC-62 melanoma; 28.1 µM in the experiment on NCI-H522 lung. Moreover, the results for the TGI in the experiment with OVCAR-8 ovarian, in the experiment with TK-10 renal and in the experiment with KM12 colon were 53.6 µM, > 100 µM and 78.8 µM, respectively.

Regarding `Cc1cnoc1NC1=CC(=O)C(=O)c2ccccc21`, the TGI is 9.81 µM in the experiment on MALME-3M melanoma; 94.3 µM in the experiment with SF-268 CNS; 80.4 µM in the experiment on SW-620 colon; > 100 µM with OVCAR-3 ovarian; 29.9 µM in the experiment with UACC-62 melanoma; > 100 µM with NCI-H522 lung. Further, the TGI with OVCAR-8 ovarian, in the experiment with TK-10 renal and in the experiment on KM12 colon was > 100 µM each time.

Turning to `Cc1c(C)c(C)c(-n2[nH]c(=O)n(C)c2=O)c(C)c1C`, the TGI in the experiment with SF-268 CNS, in the experiment on SW-620 colon, in the experiment with OVCAR-3 ovarian, with UACC-62 melanoma, in the experiment on OVCAR-8 ovarian and in the experiment on HL-60(TB) leukemia was > 100 µM in each case. The TGI in the experiment with TK-10 renal and in the experiment with KM12 colon was > 100 µM in each case.

Regarding `COc1ccc2[nH]c3c(c2c1)CCN(C)CC3`, the TGI in the experiment on MALME-3M melanoma, with SF-268 CNS, with SW-620 colon, in the experiment on OVCAR-3 ovarian, in the experiment on UACC-62 melanoma and in the experiment on OVCAR-8 ovarian was > 100 µM each time. Moreover, the TGI in the experiment with HL-60(TB) leukemia, with TK-10 renal and in the experiment on KM12 colon was > 100 µM in each case.

The record behind these values is PubChem BioAssay (NCI).
